Reference: patent US7638540B2, “Benzofuran compound and medicinal composition containing the same” (The New Industry Research Organization, priority 2003, dated 2009)

Key:
human BLT2 = molecular target: T1, human BLT2 (Homo sapiens, UniProt Q9NPC1); experiment: LTB4-induced increase in intracellular calcium ion concentration in CHO cells expressing human BLT2 (Fluo-3, Flexstation); format: cell-based; conditions: LTB4 100 nM final; for Suppressive effect on increase in intracellular calcium ion concentration compared with ZK158252 (in words): compound 10 μM final
T1 construct: expressed in transfected cells; host or cells: CHO cells
T1 sequence (Q9NPC1 1-358): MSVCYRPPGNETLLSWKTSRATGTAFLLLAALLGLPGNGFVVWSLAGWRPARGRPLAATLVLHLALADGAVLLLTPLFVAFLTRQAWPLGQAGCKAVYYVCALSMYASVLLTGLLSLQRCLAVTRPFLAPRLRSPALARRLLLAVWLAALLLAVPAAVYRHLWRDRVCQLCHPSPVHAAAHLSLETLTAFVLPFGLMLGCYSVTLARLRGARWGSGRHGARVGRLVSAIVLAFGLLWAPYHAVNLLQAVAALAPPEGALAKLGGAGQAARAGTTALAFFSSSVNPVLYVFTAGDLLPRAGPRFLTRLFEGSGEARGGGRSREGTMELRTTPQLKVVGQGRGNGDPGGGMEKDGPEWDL
Experimental: (§1) CHO cells habouring a gene encoding human BLT1 or human BLT2 and functionally expressing the receptor were seeded in a 96 well plate at 4×10^4 cells/well, and cultured at 37° C. for 60 min. The culture supernatant was removed and a loading buffer (100 μl) containing 4 μM Fluo-3 (manufactured by Dojindo), 0.04% pluoronic acid (manufactured by Sigma) and 1% serum was added. The mixture was culture at 37° C. for 30 min to introduce Fluo-3 into the cells. After culture, the cells were washed with a buffer, and a buffer containing various compounds (10 μM (final concentration)) was added, and then 100 nM (final concentration) of LTB4 was added. Changes in the intracellular calcium ion concentration were measured with Flexstation (manufactured by Molecular Devices Corporation) as increase in the fluorescence intensity (area under a curve in a time-course graph of fluorescence intensity in 10 min measurement). As a positive control of BLT1 and BLT2 antagonists, ZK158252 was used.

LTB4 receptor = experiment: TXB2 release from guinea pig eosinophils stimulated with LTB4 (LTB4 receptor antagonist activity); format: cell-based; conditions: 10^−3 M test compound (37.5 μl) added to 300 μl cell suspension, then 10^−7 M LTB4 (37.5 μl), 37° C. 15 min, positive control 100, negative control 0, N.D. = TXB2 concentration at measurement limit or less
Experimental: The LTB4 receptor antagonist activity of the test compound was examined using, as an index, thromboxane B2 (TXB2) released when stimulating eosinophil of guinea pig with LTB4.
Based on the method described in Japanese Journal of Pharmacology, vol. 70, p. 337-345 (1996) etc., eosinophils of guinea pig were prepared. A cell suspension (300 μl, 1.25×10^6 cells/ml) was placed in a 5 ml polypropylene test tube and, after incubation at 37° C. for 5 min., 10^−3 M test compound (37.5 μl) dissolved in 0.1% DMSO aqueous solution was added and the cells were continuously cultured for 5 min. Then, 10^−7 M LTB4 (37.5 μl) was added to induce the reaction and the cells were incubated at 37° C. for 15 min. The reaction was quenched in ice water, and the culture was centrifuged at 4° C., 3000 rpm for 10 min. The obtained supernatant was prepared as a sample for TXB2 measurement, and preserved at −80° C. before use for the measurement. The quantitation of TXB2 was performed using a TXB2 enzyme immunoassay kit (manufactured by Cayman Chemical Company). The release ratio (%) of TXB2 from the eosinophils was determined by the following formula: release ratio (%) of TXB2=[(average value of test compound administration group−average value of negative control group)/(average value of positive control group−average value of negative control group)]×100
As used herein, the positive control group means a group to which stimulation with LTB4 was applied but the same volume of a medium was given instead of the test compound, and the negative control group means a group to which stimulation with LTB4 was not applied, the same volume of a medium was given instead of LTB4, and the same volume of a medium was given instead of the test compound. When the release ratio of TXB2 is smaller than 0, it means that the measured TXB2 concentration was lower than that of the negative control group. When the TXB2 concentration in the sample was the measurement limit or less, N.D. is indicated.

human BLT1 = molecular target: T2, human BLT1 (Homo sapiens, UniProt Q15722); experiment: LTB4-induced increase in intracellular calcium ion concentration in CHO cells expressing human BLT1 (Fluo-3, Flexstation); format: cell-based; conditions: CHO cells with human BLT1; LTB4 100 nM final; compound 10 μM final
T2 construct: expressed in transfected cells; host or cells: CHO cells
Experimental: as §1

T2 sequence (Q15722 whole entry): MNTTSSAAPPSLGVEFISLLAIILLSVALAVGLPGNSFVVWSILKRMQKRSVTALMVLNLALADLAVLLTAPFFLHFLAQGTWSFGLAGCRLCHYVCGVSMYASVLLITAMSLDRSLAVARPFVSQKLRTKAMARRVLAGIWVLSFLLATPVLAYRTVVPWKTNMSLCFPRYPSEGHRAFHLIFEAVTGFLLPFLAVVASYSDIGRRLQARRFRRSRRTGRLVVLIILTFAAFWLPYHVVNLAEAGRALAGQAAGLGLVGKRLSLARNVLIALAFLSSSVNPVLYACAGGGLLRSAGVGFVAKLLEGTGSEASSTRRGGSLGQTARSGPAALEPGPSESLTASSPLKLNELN

| SMILES | melting point [°C] | Suppressive effect on increase in intracellular calcium ion concentration compared with ZK158252 (in words) (human BLT2) | Amount of TXB2 release (%) (LTB4 receptor) | Suppression of increase in intracellular calcium ion concentration due to LTB4 stimulation (in words) (human BLT2; CHO cells with human BLT2, positive control antagonist) | Suppression of increase in intracellular calcium ion concentration due to LTB4 stimulation (in words) (human BLT1) |
| --- | --- | --- | --- | --- | --- |
| COc1ccc(NC(=O)/C=C/c2oc3ccc(OC)cc3c2-c2ccc(Cl)cc2)cc1 [Example 141, (E)-3-[3-(4-chlorophenyl)-5-methoxybenzofuran-2-yl]-N-(4-methoxyphenyl)acrylamide] | 194 to 195.1 | almost of the same level as or not less than that by ZK158252 | – | – | – |
| CCOC(=O)CCCOc1cccc2cc(/C(C)=C\C(=O)Nc3ccc(OC)c(OC)c3)oc12 [Example 46, Ethyl (Z)-4-{2-[2-(3,4-dimethoxyphenylcarbamoyl)-1-methylvinyl]benzofuran-7-yloxy}butyrate] | 101.5 to 105 | almost of the same level as or not less than that by ZK158252 | 45.62 | – | – |
| CCOC(=O)CCCOc1cccc2cc(/C(C)=C/C(=O)N3CCOCC3)oc12 [Example 30, Ethyl (E)-4-[2-(1-methyl-3-morpholino-3-oxo-1-propenyl)benzofuran-7-yloxy]butyrate] | 90 to 94.8 | almost of the same level as or not less than that by ZK158252 | 0.086 | – | – |
| C/C(O)=C(\C#N)C(=O)Nc1c(C(=O)c2ccc(Cl)cc2)oc2ccc(Br)cc12 [Example 98, (Z)-N-[5-bromo-2-(4-chlorobenzoyl)benzofuran-3-yl]-2-cyano-3-hydroxy-2-butenamide] | 263.3 to 265.3 | almost of the same level as or not less than that by ZK158252 | – | – | – |
| COc1ccc2oc(-c3csc(N=CN(C)C)n3)c(-c3ccc(Cl)cc3)c2c1 [Example 219, N′-{4-[3-(4-chlorophenyl)-5-methoxybenzofuran-2-yl]thiazol-2-yl}-N,N-dimethylformamidine] | 142.7 to 144.3 | almost of the same level as or not less than that by ZK158252 | – | – | – |
| CCOC(=O)CCCOc1cccc2cc(/C(C)=C/C(=O)NCCc3ccc(OC)c(OC)c3)oc12 [Example 49, Ethyl (E)-4-(2-{2-[2-(3,4-dimethoxyphenyl)ethylcarbamoyl]-1-methylvinyl}benzofuran-7-yloxy)butyrate] | 114 to 115.5 | almost of the same level as or not less than that by ZK158252 | 2.37 | – | – |
| COc1cccc(NC(=O)/C=C(\C)c2cc3cccc(OCCCC(=O)O)c3o2)c1 [Example 29, (E)-4-{2-[2-(3-methoxyphenylcarbamoyl)-1-methylvinyl]benzofuran-7-yloxy}butyric acid] | 155.5 to 157.5 | almost of the same level as or not less than that by ZK158252 | −0.19 | – | – |
| CCN(CC)C(=O)/C=C(\C)c1cc2cccc(OC(C)C)c2o1 [Example 33, (E)-3-(7-isopropoxybenzofuran-2-yl)-N,N-diethyl-2-butenamide] | – | almost of the same level as or not less than that by ZK158252 | −0.199 | – | – |
| O=C(O)CCC/C=C1\CCCCC1/C=C/C=C/C(O)C1(CC#Cc2ccccc2)CCC1 (stereo not shown) [ZK158252, reference compound] | – | – | – | significantly suppressed | significantly suppressed |
| COc1ccc2oc(-c3csc(NC(=O)/C(C#N)=C(/C)O)n3)c(-c3ccc(Cl)cc3)c2c1 [Example 222, (Z)-2-cyano-3-hydroxy-2-butenoic acid {4-[3-(4-chlorophenyl)-5-methoxybenzofuran-2-yl]thiazol-2-yl}amide] | 229.5 to 231 | almost of the same level as or not less than that by ZK158252 | – | – | – |
| COc1cccc2cc(/C(Cl)=C/C=C/C(=O)N3CCCCC3)oc12 [Example 144, (2E,4Z)-5-chloro-5-(7-methoxybenzofuran-2-yl)-1-piperidin-1-ylpenta-2,4-dien-1-one] | 142.2 to 144.4 | almost of the same level as or not less than that by ZK158252 | – | – | – |
| COc1cccc2cc(/C(Cl)=C/C=C/C(=O)N(C(C)C)C(C)C)oc12 [Example 142, (2E,4Z)-5-chloro-5-(7-methoxybenzofuran-2-yl)penta-2,4-dienoic acid diisopropylamide] | 140.1 to 142 | almost of the same level as or not less than that by ZK158252 | – | – | – |
